# Assay results: publication PMC8878140, “Inhibitory Effects of Nitrogenous Metabolites from a Marine-Derived Streptomyces bacillaris on Isocitrate Lyase of Candida albicans” (Marine Drugs, 2022)
# Assays:
# isocitrate lyase (ICL) [1] = molecular target: T1, isocitrate lyase (ICL) (Candida albicans, UniProt Q9P8Q7); test: biochemical
# T1 construct: gene ICL1; purified recombinant ICL
# isocitrate lyase (ICL) [2] = molecular target: T1, isocitrate lyase (ICL); test: enzyme assay, absorbance at […] nm (phenylhydrazine); Lineweaver-Burk and Dixon plots; type: biochemical
# T1 sequence (Q9P8Q7 whole entry): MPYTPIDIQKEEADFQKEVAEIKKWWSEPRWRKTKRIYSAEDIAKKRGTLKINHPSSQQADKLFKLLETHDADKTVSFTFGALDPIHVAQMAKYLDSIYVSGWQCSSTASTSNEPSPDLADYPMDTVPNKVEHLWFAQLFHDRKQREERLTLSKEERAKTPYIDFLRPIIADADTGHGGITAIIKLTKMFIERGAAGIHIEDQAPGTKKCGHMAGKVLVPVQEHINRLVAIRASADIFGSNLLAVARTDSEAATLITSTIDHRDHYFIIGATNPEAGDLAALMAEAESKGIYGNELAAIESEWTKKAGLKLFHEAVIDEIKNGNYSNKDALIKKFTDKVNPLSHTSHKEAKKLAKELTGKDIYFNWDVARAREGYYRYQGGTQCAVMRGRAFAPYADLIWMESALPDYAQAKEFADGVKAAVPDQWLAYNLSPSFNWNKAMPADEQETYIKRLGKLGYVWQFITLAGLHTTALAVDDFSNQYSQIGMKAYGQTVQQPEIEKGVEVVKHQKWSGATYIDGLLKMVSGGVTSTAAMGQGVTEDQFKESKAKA
compound,measurement,setting,value
"O=C(O)CC[N+](=O)[O-] [3-nitropropionate, reference compound]",IC50,isocitrate lyase (ICL) [1],21.5 µM
"CS[C@]12CC[C@H](O)[C@H]1C(=O)NC2=O [compound 1, bacillimide]",IC50,isocitrate lyase (ICL) [2],44.2 µM
"C[S+]([O-])CCNC(=O)c1ccc[nH]1 (stereo not drawn) [compound 2, N-(2-(methylsulfinyl)ethyl)-1H-pyrrole-2-carboxamide]",IC50,isocitrate lyase (ICL) [1]; read-out: ICL IC50,190 µM
